Tests used:
[1] = target: T1, L-type calcium channel (Rattus norvegicus, UniProt P22002); test: Antagonistic activity on L-type calcium channel (relaxation response against KCl-induced contraction of isolated rat thoracic aorta); settings: read-out: Antagonistic action on L-type calcium channels pIC50 (converted)
T1 construct: relaxation response against the KCl-induced contraction of isolated rat thoracic aorta was employed; from tissue; host or cells: endothelium-denuded thoracic aorta rings of Wistar rat
Experimental: The antagonistic activity of the new diarylalkene derivatives and diarylalkane derivatives of the present invention to inhibit L-type calcium channel was determined by the following method in which the relaxation response against the KCl-induced contraction of isolated rat thoracic aorta was employed.
The slips of thoracic aorta isolated from a Wistar rat were used. The aorta was cut to obtain ring-shaped samples having a width of about 3 mm. The endothelial cells of the samples were mechanically removed. The samples were suspended in a strain gage in Tyrode's solution (158.3 mM of NaCl, 4.0 mM of KCl, 1.05 mM of MgCl2, 0.42 mM of NaH2PO4, 10 mM of NaHCO3, 2 mM of CaCl2 and 5 mM of glucose) in which a gaseous mixture of O2 (95%) and CO2 (5%) was introduced. A static tension of 2 g was applied thereto. The tension of the blood vessel was amplified with a transducer and a tension amplifier (EF-601G; Nihon Koden Corporation) and recorded with a multi-pen recorder (Rikadenki Kogyo Co., Ltd.). The experiments were conducted at 37° C.
After the tension had been stabilized, the nutrient solution in the sample tank was replaced with High K^+ Tyrode's solution (112.3 mM of NaCl, 50 mM of KCl, 1.05 mM of MgCl2, 0.42 mM of NaH2PO4, 10 mM of NaHCO3, 2 mM of CaCl2 and 5 mM of glucose) to conduct the contraction reaction. Thirty minutes after, the solution in the sample tank was replaced with the normal Tyrode's solution. The solution in the sample tank was again replaced with the High K^+ Tyrode's solution and the contraction reaction was observed. After attaining the maximum contraction reaction, the test compound was cumulatively added at intervals of 90 minutes to attain concentrations of 10^−9, 10^−8, 10^−7 and 10^−6 M. The inhibitory rate of the test compound against the maximum contraction response was employed as the index of the antagonistic activity on L-type calcium channels.
The value of pIC50 indicates the antagonistic activity of the test compound, i. e. the negative logarithm of the concentration of the test compound necessitated for the 50% inhibition.

[2] = tested on: Sprague-Dawley (SD) rats, partial sciatic nerve ligation (Seltzer model); test: Analgesic effects on a neuropathic pain model (partial sciatic nerve ligation model, mechanical allodynia, von Frey filaments); type: in vivo, rat; settings: one hour after administration
Experimental: The effect of compound A in improving mechanical allodynia was evaluated using the partial sciatic nerve ligation model (Seltzer model, Pain, 43: 205-218, 1990) which belongs to the neuropathic pain models. For detecting the mechanical allodynia, the sole of the right paw of each rat was stimulated with von Frey filaments, and the threshold of the reaction for the mechanical stimulation (50% threshold) was determined according to a method of Chaplan et al. (J. Neurosci. Methods, 53: 55-63, 1994). In this step, the stimulation of the sole of the paw with each filament was repeated 8 times at a rate of about twice a second.
About a half thickness of the right sciatic nerve of each 8 week-old male Sprague-Dawley (SD) rat, whose reaction threshold was determined before the nerve injury, was ligated with a surgical suture to partially injure the nerve according to a method of Seltzer et al. (Pain, 43: 205-218, 1990). Six days after the nerve injury, the reaction threshold of the right hindpaw was determined and compared with that determined before the nerve injury. Individuals having a threshold far lower than that determined before the nerve injury [i.e. rats showing mechanical allodynia] were selected for evaluating allodynia improving effect. Seven and 9 days after the nerve injury, the reaction threshold of the rats selected for the purpose of the evaluation was determined before compound administration. […] One hour after the administration, the reaction threshold of each rat was determined.
The effect of compound B in improving mechanical allodynia was evaluated using the partial sciatic nerve ligation model (Seltzer model, Pain, 43: 205-218, 1990) which belongs to the neuropathic pain models. […] Six days after the nerve injury, the reaction threshold of the right hindpaw was determined and was compared with that determined before the nerve injury. Individuals having a threshold far lower than that determined before the nerve injury [i.e. rats showing mechanical allodynia] were selected for evaluating allodynia improving effect. […]

T1 sequence (P22002 whole entry): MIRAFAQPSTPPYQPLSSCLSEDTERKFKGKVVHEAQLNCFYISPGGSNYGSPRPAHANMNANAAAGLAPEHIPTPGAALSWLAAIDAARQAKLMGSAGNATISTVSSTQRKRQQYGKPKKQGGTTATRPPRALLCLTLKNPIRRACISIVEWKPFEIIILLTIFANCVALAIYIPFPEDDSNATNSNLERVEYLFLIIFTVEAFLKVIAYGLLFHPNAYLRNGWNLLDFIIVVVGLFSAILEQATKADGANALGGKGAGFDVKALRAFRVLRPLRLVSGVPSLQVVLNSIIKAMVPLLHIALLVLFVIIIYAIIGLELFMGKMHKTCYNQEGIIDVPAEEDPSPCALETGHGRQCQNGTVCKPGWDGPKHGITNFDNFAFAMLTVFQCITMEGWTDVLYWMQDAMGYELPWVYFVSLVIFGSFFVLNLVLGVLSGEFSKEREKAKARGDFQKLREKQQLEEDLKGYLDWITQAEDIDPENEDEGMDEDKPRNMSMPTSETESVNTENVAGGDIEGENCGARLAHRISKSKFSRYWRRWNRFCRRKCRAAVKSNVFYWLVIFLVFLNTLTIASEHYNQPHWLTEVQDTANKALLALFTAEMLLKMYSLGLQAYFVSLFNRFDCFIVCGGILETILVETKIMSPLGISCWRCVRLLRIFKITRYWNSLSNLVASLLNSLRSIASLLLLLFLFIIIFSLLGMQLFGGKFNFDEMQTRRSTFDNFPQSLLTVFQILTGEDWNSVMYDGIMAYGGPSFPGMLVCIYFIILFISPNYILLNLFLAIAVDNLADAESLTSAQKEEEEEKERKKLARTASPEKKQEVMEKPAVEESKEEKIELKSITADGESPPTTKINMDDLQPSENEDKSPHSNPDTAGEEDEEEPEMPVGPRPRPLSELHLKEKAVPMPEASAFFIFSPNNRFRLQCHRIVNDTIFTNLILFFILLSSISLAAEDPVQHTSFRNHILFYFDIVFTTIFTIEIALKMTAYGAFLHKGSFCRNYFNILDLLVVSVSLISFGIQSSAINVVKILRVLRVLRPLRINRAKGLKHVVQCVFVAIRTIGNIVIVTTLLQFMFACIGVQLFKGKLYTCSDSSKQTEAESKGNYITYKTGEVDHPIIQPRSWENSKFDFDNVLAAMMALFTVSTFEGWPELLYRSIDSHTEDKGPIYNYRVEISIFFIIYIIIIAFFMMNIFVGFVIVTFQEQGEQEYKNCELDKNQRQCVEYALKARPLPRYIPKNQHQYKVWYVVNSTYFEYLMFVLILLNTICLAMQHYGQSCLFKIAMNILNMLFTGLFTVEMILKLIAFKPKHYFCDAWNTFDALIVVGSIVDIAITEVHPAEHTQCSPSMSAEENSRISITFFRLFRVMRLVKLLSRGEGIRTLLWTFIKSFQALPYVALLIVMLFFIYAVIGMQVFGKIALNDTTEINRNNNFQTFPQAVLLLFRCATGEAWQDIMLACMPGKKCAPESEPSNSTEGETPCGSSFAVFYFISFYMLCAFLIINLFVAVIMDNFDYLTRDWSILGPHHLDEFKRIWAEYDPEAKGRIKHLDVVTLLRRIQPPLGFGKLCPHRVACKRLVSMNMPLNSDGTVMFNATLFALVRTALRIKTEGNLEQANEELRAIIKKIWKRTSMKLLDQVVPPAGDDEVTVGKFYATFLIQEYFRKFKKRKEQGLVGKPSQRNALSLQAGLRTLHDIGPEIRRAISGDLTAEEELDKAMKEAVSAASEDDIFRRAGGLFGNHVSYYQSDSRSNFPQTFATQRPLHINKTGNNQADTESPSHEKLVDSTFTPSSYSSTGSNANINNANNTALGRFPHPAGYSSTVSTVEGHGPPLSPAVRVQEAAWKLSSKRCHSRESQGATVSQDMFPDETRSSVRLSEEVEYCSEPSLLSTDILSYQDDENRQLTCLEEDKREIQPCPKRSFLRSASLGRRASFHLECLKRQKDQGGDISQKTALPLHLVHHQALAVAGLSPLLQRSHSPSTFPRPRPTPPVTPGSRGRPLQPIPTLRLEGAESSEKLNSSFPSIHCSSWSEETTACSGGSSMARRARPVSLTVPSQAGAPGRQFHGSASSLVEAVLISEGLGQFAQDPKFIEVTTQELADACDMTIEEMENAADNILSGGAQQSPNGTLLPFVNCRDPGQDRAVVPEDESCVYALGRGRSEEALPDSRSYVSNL
T1 sequence (P54287 whole entry partner): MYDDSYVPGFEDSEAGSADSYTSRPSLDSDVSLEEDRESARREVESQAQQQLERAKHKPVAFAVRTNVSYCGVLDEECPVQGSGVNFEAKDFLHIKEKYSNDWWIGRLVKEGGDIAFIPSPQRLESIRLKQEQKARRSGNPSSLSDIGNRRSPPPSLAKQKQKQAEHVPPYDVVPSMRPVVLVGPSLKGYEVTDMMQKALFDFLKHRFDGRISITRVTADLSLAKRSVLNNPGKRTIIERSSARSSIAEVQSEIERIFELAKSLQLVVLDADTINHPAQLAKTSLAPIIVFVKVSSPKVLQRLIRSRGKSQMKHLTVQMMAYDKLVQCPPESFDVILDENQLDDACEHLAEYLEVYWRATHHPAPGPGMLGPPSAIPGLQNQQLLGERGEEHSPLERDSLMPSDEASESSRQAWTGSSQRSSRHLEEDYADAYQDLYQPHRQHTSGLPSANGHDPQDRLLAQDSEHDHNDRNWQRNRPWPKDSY
T1 sequence (P54290 25-944 partner limits assumed): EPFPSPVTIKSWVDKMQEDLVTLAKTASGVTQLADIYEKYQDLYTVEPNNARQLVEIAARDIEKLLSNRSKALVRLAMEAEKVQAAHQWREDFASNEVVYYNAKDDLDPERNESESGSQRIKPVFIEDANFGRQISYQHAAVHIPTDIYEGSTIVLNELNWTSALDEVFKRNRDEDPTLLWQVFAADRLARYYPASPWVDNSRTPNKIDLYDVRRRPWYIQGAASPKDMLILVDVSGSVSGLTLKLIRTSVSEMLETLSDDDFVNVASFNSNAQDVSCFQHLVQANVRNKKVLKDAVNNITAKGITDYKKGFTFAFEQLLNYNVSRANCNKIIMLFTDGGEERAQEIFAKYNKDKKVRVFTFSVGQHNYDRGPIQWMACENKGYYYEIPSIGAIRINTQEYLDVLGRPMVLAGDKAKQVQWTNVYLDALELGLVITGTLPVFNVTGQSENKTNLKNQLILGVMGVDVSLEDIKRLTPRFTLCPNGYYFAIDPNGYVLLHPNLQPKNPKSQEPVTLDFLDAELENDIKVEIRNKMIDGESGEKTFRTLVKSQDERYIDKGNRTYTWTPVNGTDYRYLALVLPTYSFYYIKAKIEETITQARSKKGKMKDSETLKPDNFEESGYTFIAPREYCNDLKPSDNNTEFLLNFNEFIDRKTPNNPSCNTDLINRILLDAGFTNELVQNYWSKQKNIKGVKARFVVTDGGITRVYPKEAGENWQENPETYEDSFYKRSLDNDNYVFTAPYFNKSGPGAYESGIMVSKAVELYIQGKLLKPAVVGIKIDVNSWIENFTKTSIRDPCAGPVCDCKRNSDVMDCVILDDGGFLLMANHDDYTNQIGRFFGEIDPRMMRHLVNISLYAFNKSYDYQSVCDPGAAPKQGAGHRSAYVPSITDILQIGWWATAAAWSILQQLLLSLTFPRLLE
T1 sequence (P54290 945-1091 partner limits assumed): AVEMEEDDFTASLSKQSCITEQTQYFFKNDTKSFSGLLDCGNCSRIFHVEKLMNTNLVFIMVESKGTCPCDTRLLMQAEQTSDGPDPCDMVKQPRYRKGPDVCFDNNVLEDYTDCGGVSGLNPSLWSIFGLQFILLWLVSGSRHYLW

What does the source list for `CC(C)(C)C(=O)NCCC(=O)N1CCC(=C2c3ccccc3C=Cc3ccccc32)CC1` [Example 11, N-{3-[4-(5H-dibenzo[a,d][7]annulen-5-ylidene)-1-piperidinyl]-3-oxopropyl}-2,2-dimethylpropanamide]?
IC50 [1]: 398 nM; reaction threshold for mechanical stimulation (50% threshold) after the administration ([2]; 3 mg/kg oral in 0.5% tragacanth): increased

Which results are given for `CC(C)(C)C(=O)N[C@H](CO)CCC(=O)N1CCC(=C2c3ccccc3C=Cc3ccccc32)CC1` [Example 71, (S)-N-[4-[4-(5H-dibenzo[a,d][7]annulen-5-ylidene)-1-piperidinyl]-1-(hydroxylmethyl)-4-oxobutyl]-2.2-dimethylpropanamide]?
IC50 [1]: 1260 nM; reaction threshold for mechanical stimulation (50% threshold) after the administration ([2]; 3 mg/kg oral in PEG): hardly changed; reaction threshold for mechanical stimulation (50% threshold) after the administration ([2]; 100 mg/kg oral in PEG): clearly increased

— patent US7462630B2, “Diarylalkene derivatives and novel diarylalkane derivatives” (Ajinomoto Co., Inc., priority 2001, dated 2008)
